In ChEMBL document CHEMBL3352338, “Development and biological evaluation of potent and selective c-KIT(D816V) inhibitors” (J Med Chem, 2014) one finds residual activity, IC50 and inhibition data, which are given here for five compounds.

Calls of active or inactive are those of the source. The rule behind the calls is not given here.

Experiment [1] concerns the target Epidermal growth factor receptor (Homo sapiens) (UniProt P00533). Kind of experiment: Inhibition of EGFR (unknown origin) at 1 uM by KINOMEscanning assay relative to control; values are per cent of control.
For experiment [2], the target named is Tyrosine-protein kinase JAK1 (Homo sapiens) (UniProt P23458). Kind of experiment: Inhibition of JAK1 (unknown origin) at 1 uM by KINOMEscanning assay relative to control; values are per cent of control.
In experiment [3] the target is T1, Mast/stem cell growth factor receptor Kit (Homo sapiens, UniProt P10721). The experiment is described as follows: Inhibition of c-KIT (unknown origin) at 1 uM by KINOMEscanning assay relative to control; values are per cent of control.
Experiment [4] addresses ALK tyrosine kinase receptor (Homo sapiens) (UniProt Q9UM73). The experiment is described as follows: Inhibition of ALK (unknown origin) at 1 uM by KINOMEscanning assay relative to control; values are per cent of control.
Experiment [5] deals with Serine/threonine-protein kinase B-raf (Homo sapiens) (UniProt P15056). The experiment is described as follows: Inhibition of BRAF (unknown origin) at 1 uM by KINOMEscanning assay relative to control; values are per cent of control.
Chain of Serine/threonine-protein kinase B-raf (Homo sapiens) (P15056 whole entry): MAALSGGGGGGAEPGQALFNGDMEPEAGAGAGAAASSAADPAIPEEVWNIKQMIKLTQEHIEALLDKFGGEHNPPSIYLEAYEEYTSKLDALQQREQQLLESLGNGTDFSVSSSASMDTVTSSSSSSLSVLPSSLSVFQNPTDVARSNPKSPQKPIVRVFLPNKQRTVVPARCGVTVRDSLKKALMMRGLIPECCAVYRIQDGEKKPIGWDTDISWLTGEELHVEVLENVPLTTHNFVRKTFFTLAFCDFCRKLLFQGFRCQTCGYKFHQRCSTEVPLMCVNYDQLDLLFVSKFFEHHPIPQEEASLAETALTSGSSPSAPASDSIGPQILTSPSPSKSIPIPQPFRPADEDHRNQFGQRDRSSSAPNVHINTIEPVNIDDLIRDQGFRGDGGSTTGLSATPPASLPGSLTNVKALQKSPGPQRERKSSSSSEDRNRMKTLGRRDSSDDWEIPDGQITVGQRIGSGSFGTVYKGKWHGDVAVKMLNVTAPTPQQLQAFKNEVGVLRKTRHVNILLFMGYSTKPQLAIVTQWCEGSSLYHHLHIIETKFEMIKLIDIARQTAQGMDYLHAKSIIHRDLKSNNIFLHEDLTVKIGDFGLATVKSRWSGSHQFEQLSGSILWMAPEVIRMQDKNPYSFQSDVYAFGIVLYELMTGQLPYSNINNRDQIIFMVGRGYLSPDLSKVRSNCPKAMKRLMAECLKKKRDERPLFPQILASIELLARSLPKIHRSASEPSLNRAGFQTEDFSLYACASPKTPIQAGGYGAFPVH
Experiment [6] addresses T2, Aurora kinase A (Homo sapiens) (UniProt O14965).
T2 sequence (whole entry): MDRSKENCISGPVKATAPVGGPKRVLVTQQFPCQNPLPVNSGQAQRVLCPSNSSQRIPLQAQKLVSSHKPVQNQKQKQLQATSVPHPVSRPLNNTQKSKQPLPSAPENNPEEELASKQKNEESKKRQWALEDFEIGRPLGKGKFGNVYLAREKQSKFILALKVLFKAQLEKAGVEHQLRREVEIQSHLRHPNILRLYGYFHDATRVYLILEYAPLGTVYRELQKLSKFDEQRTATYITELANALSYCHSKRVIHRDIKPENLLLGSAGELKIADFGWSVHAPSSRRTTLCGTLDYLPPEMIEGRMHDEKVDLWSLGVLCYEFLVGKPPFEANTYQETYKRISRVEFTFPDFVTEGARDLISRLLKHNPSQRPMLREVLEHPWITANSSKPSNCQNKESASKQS
Kind of experiment: Inhibition of AURKA (unknown origin) at 1 uM by KINOMEscanning assay relative to control; values are per cent of control.

For experiment [7], the target named is Mast/stem cell growth factor receptor Kit (Homo sapiens, UniProt P10721, D816V). Kind of experiment: Inhibition of c-KIT D816V mutant (unknown origin).
The target in experiment [8] is T3, Serine/threonine-protein kinase 17A (Homo sapiens) (UniProt Q9UEE5).
T3 sequence (whole entry): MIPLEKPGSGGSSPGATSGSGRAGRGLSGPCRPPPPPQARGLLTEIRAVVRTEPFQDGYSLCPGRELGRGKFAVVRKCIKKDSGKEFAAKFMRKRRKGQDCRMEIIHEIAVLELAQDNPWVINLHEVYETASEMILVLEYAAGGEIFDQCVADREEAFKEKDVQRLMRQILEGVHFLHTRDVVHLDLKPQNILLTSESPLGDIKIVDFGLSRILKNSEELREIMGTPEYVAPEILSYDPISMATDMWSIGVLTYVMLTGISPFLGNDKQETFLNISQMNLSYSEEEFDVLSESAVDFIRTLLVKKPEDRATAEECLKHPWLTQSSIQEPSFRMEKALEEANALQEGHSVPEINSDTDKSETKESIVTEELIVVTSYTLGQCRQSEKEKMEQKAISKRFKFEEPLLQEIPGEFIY
Kind of experiment: Inhibition of DRAK1 (unknown origin) at 1 uM by KINOMEscanning assay relative to control; values are per cent of control.

The target of experiment [9] is Phosphatidylinositol 4,5-bisphosphate 3-kinase catalytic subunit beta isoform (Homo sapiens) (UniProt P42338). The experiment is described as follows: Inhibition of PI3Kbeta (unknown origin) at 1 uM by KINOMEscanning assay relative to control; values are per cent of control.
Experiment [10] has as its target 5'-AMP-activated protein kinase catalytic subunit alpha-1 (Homo sapiens) (UniProt Q13131). The experiment is described as follows: Inhibition of AMPKalpha 1 (unknown origin) at 1 uM by KINOMEscanning assay relative to control; values are per cent of control.
The target of experiment [11] is Fibroblast growth factor receptor 1 (Homo sapiens) (UniProt P11362). The experiment is described as follows: Inhibition of FGFR1 (unknown origin) at 1 uM by KINOMEscanning assay relative to control; values are per cent of control.
Experiment [12] deals with Glycogen synthase kinase-3 beta (Homo sapiens) (UniProt P49841). Kind of experiment: Inhibition of GSK3beta (unknown origin) at 1 uM by KINOMEscanning assay relative to control; values are per cent of control.
For experiment [13], the system named is Serine/threonine-protein kinase B-raf (Homo sapiens), P15056 [V600E]. Kind of experiment: Inhibition of BRAF V600E mutant (unknown origin) at 1 uM by KINOMEscanning assay relative to control; values are per cent of control.
Chain of Serine/threonine-protein kinase B-raf (Homo sapiens), P15056 [V600E] (P15056 whole entry V600E): as the sequence (P15056 whole entry) above, with V600E counted along it
For experiment [14], the target named is Cyclin-dependent kinase 19 (Homo sapiens) (UniProt Q9BWU1). Kind of experiment: Inhibition of CDK11 (unknown origin) at 1 uM by KINOMEscanning assay relative to control; values are per cent of control.
Chain of Cyclin-dependent kinase 19 (Homo sapiens) (Q9BWU1 whole entry): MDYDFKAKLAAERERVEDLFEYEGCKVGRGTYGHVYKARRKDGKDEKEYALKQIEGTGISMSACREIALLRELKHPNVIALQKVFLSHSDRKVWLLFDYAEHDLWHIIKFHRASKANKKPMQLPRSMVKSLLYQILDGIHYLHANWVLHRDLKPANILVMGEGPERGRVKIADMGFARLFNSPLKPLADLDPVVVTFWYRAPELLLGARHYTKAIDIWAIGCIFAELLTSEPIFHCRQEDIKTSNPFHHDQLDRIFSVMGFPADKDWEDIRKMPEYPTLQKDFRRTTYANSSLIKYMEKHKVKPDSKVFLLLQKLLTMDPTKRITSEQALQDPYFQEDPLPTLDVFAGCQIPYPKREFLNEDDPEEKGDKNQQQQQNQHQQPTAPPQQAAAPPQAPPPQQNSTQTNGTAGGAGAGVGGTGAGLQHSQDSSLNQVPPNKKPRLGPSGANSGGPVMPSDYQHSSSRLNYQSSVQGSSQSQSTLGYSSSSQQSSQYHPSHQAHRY
The target in experiment [15] is Serine/threonine-protein kinase PAK 1 (Homo sapiens) (UniProt Q13153). The experiment is described as follows: Inhibition of PAK1 (unknown origin) at 1 uM by KINOMEscanning assay relative to control; values are per cent of control.
For experiment [16], the target named is Phosphatidylinositol 4,5-bisphosphate 3-kinase catalytic subunit alpha isoform (Homo sapiens, UniProt P42336). Kind of experiment: Inhibition of PI3Kalpha (unknown origin) at 1 uM by KINOMEscanning assay relative to control; values are per cent of control.
Chain of Phosphatidylinositol 4,5-bisphosphate 3-kinase catalytic subunit alpha isoform (P42336 whole entry, canonical isoform): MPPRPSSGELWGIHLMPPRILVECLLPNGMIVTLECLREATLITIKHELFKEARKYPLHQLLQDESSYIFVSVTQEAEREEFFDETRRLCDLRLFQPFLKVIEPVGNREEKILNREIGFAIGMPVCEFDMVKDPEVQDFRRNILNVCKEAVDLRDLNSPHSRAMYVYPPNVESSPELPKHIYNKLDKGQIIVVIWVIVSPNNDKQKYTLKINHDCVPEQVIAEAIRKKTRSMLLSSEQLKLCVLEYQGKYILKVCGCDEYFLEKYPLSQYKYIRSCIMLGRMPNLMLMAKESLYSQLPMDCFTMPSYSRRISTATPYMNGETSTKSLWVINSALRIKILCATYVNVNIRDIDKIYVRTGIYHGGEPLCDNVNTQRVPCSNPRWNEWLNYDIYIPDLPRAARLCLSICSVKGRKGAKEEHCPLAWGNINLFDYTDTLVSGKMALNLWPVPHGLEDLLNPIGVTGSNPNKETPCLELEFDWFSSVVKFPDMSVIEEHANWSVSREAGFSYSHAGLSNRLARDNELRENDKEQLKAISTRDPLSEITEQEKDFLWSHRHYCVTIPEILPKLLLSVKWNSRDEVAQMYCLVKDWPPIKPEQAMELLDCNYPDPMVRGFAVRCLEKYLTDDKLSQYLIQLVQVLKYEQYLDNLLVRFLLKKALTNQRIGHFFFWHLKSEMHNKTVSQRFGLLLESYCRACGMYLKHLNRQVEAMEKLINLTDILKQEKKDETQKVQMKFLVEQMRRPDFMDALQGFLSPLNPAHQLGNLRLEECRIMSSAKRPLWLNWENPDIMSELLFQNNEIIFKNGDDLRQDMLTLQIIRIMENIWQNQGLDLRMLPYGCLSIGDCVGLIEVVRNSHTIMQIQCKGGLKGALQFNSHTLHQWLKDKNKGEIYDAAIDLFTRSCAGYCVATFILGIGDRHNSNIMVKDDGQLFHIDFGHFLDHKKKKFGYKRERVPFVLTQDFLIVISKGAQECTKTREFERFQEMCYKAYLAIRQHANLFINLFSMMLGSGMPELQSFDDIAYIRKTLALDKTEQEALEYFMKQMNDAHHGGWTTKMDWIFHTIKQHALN
In experiment [17] the target is Receptor-type tyrosine-protein kinase FLT3 (Homo sapiens) (UniProt P36888). Kind of experiment: Inhibition of FLT3 (unknown origin) at 1 uM by KINOMEscanning assay relative to control; values are per cent of control.
Chain of Receptor-type tyrosine-protein kinase FLT3 (Homo sapiens) (P36888 whole entry): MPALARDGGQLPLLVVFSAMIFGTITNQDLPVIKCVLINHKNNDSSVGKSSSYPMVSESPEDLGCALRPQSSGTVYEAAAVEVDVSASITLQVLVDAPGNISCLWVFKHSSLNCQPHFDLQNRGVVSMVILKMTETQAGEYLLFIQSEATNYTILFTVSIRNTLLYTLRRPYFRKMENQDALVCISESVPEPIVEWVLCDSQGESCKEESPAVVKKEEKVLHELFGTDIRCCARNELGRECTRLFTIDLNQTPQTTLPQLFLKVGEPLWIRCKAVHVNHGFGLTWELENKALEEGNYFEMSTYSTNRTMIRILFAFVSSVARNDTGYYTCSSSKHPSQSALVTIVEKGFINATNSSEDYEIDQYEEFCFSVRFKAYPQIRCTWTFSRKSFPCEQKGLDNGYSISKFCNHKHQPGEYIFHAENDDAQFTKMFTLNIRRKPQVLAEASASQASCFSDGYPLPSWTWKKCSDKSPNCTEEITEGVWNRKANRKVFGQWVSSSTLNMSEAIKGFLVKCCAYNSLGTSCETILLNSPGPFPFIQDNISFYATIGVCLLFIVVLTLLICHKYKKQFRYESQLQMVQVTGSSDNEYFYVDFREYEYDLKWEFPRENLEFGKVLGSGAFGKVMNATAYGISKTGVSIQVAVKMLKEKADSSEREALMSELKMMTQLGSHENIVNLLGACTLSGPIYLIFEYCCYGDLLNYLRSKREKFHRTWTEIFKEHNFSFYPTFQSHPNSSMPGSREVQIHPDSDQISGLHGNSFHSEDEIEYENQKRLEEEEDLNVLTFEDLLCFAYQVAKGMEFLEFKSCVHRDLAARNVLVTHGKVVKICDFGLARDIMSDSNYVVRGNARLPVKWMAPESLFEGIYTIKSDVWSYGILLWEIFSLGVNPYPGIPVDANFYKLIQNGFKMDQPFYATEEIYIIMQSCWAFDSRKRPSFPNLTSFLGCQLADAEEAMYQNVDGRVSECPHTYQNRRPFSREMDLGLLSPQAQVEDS
The target in experiment [18] is T1, Mast/stem cell growth factor receptor Kit. Conditions: 5 uM.
Description: Inhibition of c-KIT in imatinib-resistant human HMC-1.2 cells assessed as suppression of Erk phosphorylation at 5 uM after 1 hr by Western immunoblotting analysis
Experiment [19] has as its target Cyclin-dependent kinase 4 (Homo sapiens) (UniProt P11802). Kind of experiment: Inhibition of CDK4 (unknown origin) at 1 uM by KINOMEscanning assay relative to control; values are per cent of control.
Experiment [20] has as its target T1, Mast/stem cell growth factor receptor Kit. Kind of experiment: Inhibition of wild type c-KIT (unknown origin).

Chain of Cyclin-dependent kinase 4 (Homo sapiens) (P11802 whole entry): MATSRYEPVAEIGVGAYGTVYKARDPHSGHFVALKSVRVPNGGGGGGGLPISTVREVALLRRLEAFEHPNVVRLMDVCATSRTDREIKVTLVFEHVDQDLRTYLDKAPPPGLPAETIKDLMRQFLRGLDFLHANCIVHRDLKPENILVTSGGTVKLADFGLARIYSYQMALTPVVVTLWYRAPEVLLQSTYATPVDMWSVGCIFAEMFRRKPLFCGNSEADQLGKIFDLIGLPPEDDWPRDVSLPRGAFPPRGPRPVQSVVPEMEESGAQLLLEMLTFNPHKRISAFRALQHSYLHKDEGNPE
Chain of Epidermal growth factor receptor (Homo sapiens) (P00533 whole entry): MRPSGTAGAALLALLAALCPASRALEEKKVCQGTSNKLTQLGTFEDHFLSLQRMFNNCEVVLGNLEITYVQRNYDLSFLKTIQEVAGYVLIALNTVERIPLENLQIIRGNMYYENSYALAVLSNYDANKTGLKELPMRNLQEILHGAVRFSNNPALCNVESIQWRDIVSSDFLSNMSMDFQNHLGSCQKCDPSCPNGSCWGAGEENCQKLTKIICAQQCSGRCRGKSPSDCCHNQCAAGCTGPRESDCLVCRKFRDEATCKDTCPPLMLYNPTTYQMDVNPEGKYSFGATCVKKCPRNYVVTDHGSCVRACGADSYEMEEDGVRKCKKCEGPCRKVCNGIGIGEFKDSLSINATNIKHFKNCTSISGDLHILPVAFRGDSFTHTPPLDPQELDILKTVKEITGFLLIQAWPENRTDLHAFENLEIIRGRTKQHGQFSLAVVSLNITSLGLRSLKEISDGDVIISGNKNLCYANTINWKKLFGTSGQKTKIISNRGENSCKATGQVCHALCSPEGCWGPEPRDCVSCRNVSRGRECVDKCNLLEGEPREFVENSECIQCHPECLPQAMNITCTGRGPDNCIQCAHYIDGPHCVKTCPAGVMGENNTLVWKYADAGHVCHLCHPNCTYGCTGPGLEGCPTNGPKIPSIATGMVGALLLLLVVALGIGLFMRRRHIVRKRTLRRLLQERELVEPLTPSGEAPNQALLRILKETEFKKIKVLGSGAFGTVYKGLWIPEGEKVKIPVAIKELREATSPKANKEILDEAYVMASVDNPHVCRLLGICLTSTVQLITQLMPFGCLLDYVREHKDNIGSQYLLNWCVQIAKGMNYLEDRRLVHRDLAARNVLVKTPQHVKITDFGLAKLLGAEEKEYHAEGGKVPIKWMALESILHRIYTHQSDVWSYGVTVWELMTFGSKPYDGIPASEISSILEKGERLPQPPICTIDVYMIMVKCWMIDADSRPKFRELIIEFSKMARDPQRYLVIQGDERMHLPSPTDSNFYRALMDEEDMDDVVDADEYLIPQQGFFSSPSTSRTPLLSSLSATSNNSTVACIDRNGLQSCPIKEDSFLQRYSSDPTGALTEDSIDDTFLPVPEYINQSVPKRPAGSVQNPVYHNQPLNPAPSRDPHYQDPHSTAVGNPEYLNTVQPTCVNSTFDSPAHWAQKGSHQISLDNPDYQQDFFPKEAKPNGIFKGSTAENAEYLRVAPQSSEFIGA

As a reminder, the IC50 is the concentration at which inhibition is half-maximal. Regarding `COc1cc(-c2c[nH]c3ncc(-c4cccc(N)c4)cc23)cc(OC)c1OC`, the residual activity was 70% in experiment [1]; 71% in experiment [2]; 9.8% in experiment [3]; 33% in experiment [4]; 28% in [5]; 8.9% in experiment [6]. In addition, the residual activity in experiment [8] worked out at 86%; in experiment [9], 87%; in experiment [10] it was 90%; in experiment [11], 100%; in experiment [12], 64%; in experiment [13], 34%. Further, the residual activity in [14] amounted to 96%; in experiment [15], 89%; in [16], 71%; in experiment [17], 25%; in experiment [19] it was 85%. This compound also gave an IC50 in experiment [7] of 97.7 nM. The inhibition entry in [18] was “Active”.

Take `COc1ccc(-c2c[nH]c3ncc(-c4cc(OC)c(OC)c(OC)c4)cc23)cc1OC`: the residual activity in experiment [1] was 68%; in [2] it was 92%; in experiment [3], 19%; in experiment [4] it was 40%; in [5] it was 78%; in experiment [6], 25%. The residual activity in experiment [8] is 0.95%; in [9], 94%; in experiment [10], 95%; in experiment [11] it was 84%; in experiment [12], 64%; in experiment [13], 82%. The residual activity worked out at 90% in experiment [14]; 83% in experiment [15]; 75% in experiment [16]; 1.6% in experiment [17]; 95% in experiment [19]. For the same compound, the IC50 came out at 8.8 nM in experiment [7] and 2750 nM in experiment [20]. For the same compound, the inhibition result in experiment [18] is “Active”.

With `COc1ccc(-c2c[nH]c3ncc(-c4ccc(C(=O)N5CCOCC5)c(N)c4)cc23)cc1OC`, the residual activity in experiment [1] worked out at 73%; in experiment [2], 100%; in experiment [3], 51%; in experiment [4], 76%; in [5] it was 78%; in [6], 0.85%. The residual activity in [8] turned out to be 0.25%; in experiment [9] it was 95%; in experiment [10], 84%; in experiment [11], 90%; in experiment [12] it was 63%; in [13] it was 66%. Further, the residual activity in experiment [14] was found to be 100%; in experiment [15] it was 87%; in [16], 100%; in experiment [17], 7%; in experiment [19], 82%. The results for the IC50 in experiment [7] and in [20] were 8.5 nM and 9140 nM, respectively.

Regarding `COc1ccc(-c2cnc3[nH]cc(-c4ccc(OC)c(OC)c4)c3c2)cc1OC`, the residual activity in experiment [1] amounted to 70%; in experiment [2] it was 100%; in experiment [3] it was 0.8%; in experiment [4], 43%; in experiment [5] it was 81%; in [6], 13%. Moreover, the residual activity in experiment [8] worked out at 0.2%; in experiment [9], 100%; in [10], 100%; in [11], 89%; in experiment [12], 94%; in experiment [13] it was 88%. In addition, the residual activity in experiment [14] turned out to be 3.8%; in experiment [15], 85%; in [16], 66%; in experiment [17], 2.2%; in [19], 85%. In addition, the IC50 was 2.1 nM in [7] and 142 nM in [20]. Also, the inhibition result in [18] was “Active”.

For the compound `COc1ccc(-c2cnc3[nH]cc(-c4ccc(OC)c(OC)c4)c3c2)cc1N`, the residual activity in [1] amounted to 43%; in experiment [2], 93%; in experiment [3], 37%; in [4], 51%; in experiment [5] it was 83%; in experiment [6] it was 17%. Also, the residual activity in experiment [8] was 2.4%; in [9], 93%; in experiment [10] it was 98%; in experiment [11], 92%; in [12] it was 87%; in [13], 78%. Besides, the residual activity in [14] came out at 79%; in experiment [15], 88%; in experiment [16], 71%; in experiment [17], 18%; in experiment [19], 81%. Besides, the IC50 in experiment [7] was 25.6 nM; in [20], above 10000 nM. The inhibition result in [18] is “Active”.
